# Measured values taken from patent publication US10173968B2, “Bishydrazone-based antifungal agents” (University of Kentucky Research Foundation, priority 2016, dated 2019).
# “And” between values parts separate entries of the source, which are not always exact repeats. Identical values can stand only once. Like-named read-outs stand apart in the source and are kept apart here.
# Tests used:
# A. baumannii ATCC 19606 = experiment: Antibacterial MIC, double-dilution method; assay type: cell-based; settings: Acinetobacter baumannii, ATCC19606
# Experimental: (§1) MIC values were determined against a variety of Gram-positive (strains A-D) and Gram-negative (E-J) bacterial and mycobacterial (K) strains using the double-dilution method, as previously published. Preliminary screening was performed using 500 μM of each compound.
# B. subtilis 168 = experiment: Antibacterial MIC, double-dilution method; assay type: cell-based; settings: Bacillus subtilis, strain A, Gram-positive
# Experimental: as §1
# E. cloacae ATCC 13047 = experiment: Antibacterial MIC, double-dilution method; assay type: cell-based; settings: Enterobacter cloacae, ATCC13047
# Experimental: as §1
# E. coli MC1061 = experiment: Antibacterial MIC, double-dilution method; assay type: cell-based; settings: Escherichia coli, strain G, Gram-negative, read-out: MIC
# Experimental: as §1
# K. pneumoniae ATCC 27736 = experiment: Antibacterial MIC, double-dilution method; assay type: cell-based; settings: Klebsiella pneumoniae, ATCC27736
# Experimental: as §1
# [1] = tested on: L. monocytogenes ATCC 19115; experiment: Antibacterial MIC, double-dilution method; assay type: cell-based; settings: Listeria monocytogenes, ATCC19115, strain B, Gram-positive, read-out: MIC
# Experimental: as §1
# M. smegmatis MC2-155 = experiment: Antibacterial MIC, double-dilution method; assay type: cell-based; settings: Mycolicibacterium smegmatis, MC2155, strain K, mycobacterial
# Experimental: as §1
# MRSA = experiment: Antibacterial MIC, double-dilution method; assay type: cell-based; settings: Staphylococcus aureus, strain C, Gram-positive, read-out: MIC
# Experimental: as §1
# P. aeruginosa ATCC 27853 = experiment: Antibacterial MIC, double-dilution method; assay type: cell-based; settings: Pseudomonas aeruginosa, ATCC27853
# Experimental: as §1
# S. enterica ATCC 14028 = experiment: Antibacterial MIC, double-dilution method; assay type: cell-based; settings: Salmonella enterica, ATCC14028, strain J, Gram-negative, read-out: MIC
# Experimental: as §1
# VRE = experiment: Antibacterial MIC, double-dilution method; assay type: cell-based; settings: Enterococcus, strain D, Gram-positive, read-out: MIC
# Experimental: as §1
# [2] = tested on: all bacterial strains tested; experiment: Antibacterial MIC, summary over the panel; assay type: cell-based
# Experimental: as §1
# C. albicans ATCC 1003 = experiment: Antifungal MIC, CLSI M27-A3 microbroth dilution; assay type: cell-based, Candida albicans; settings: Candida albicans, ATCC1003, read-out: MIC
# Experimental: (§2) In vitro MIC testing was performed according to the CLSI M27-A3 standard microbroth dilution methodology for the susceptibility testing of yeasts with minor modifications.
# C. albicans ATCC 10231 = experiment: Antifungal MIC, CLSI M27-A3 microbroth dilution; assay type: cell-based, Candida albicans; settings: Candida albicans, ATCC10231, C. albicans ATCC 10231, resistant to FLC, ITC, and VOR, read-out: MIC
# Experimental: as §2
# C. albicans ATCC 1237 = experiment: Antifungal MIC, CLSI M27-A3 microbroth dilution; assay type: cell-based, Candida albicans; settings: Candida albicans, ATCC1237, C. albicans ATCC 1237, resistant to FLC, ITC, and VOR, read-out: MIC
# Experimental: as §2
# C. albicans ATCC 2310 = experiment: Antifungal MIC, CLSI M27-A3 microbroth dilution; assay type: cell-based, Candida albicans; settings: Candida albicans, ATCC2310, C. albicans ATCC 2310, susceptible to FLC, ITC, and VOR, read-out: MIC
# Experimental: as §2
# C. albicans ATCC 2876 = experiment: Antifungal MIC, CLSI M27-A3 microbroth dilution; assay type: cell-based, Candida albicans; settings: Candida albicans, ATCC2876, C. albicans ATCC 2876, susceptible to FLC, ITC, and VOR, read-out: MIC
# Experimental: as §2
# C. albicans ATCC 64124 = experiment: Antifungal MIC, CLSI M27-A3 microbroth dilution; assay type: cell-based, Candida albicans; settings: Candida albicans, ATCC64124, C. albicans ATCC 64124, resistant to FLC, ITC, and VOR, read-out: MIC
# Experimental: as §2
# C. albicans ATCC 90819 = experiment: Antifungal MIC, CLSI M27-A3 microbroth dilution; assay type: cell-based, Candida albicans; settings: Candida albicans, ATCC90819, C. albicans ATCC 90819, resistant to FLC, ITC, and VOR, read-out: MIC
# Experimental: as §2
# [3] = tested on: C. albicans strains (panel of seven); experiment: Antifungal MIC, summary over the panel; assay type: cell-based, Candida albicans; settings: Candida albicans; all, most or majority of the fungal strains; read-out: MIC, span over C. albicans strains
# Experimental: In vitro MIC testing was performed according to the CLSI M27-A3 standard microbroth dilution methodology for the susceptibility testing of yeasts with minor modifications. […] MIC values were read visually for all tested compounds, and the endpoint was determined as the minimum concentration of compound that yielded complete inhibition relative to growth control.
# [4] = Mammalian cell cytotoxicity, resazurin; assay type: cell-based; settings: human
# Experimental: Another important aspect to consider during the development of antimicrobial agents is their potential toxicity towards mammalian cells. Having established the potent antimicrobial activities of the bis(N-amidino)hydrazones and N-amidino-N′-aryl-bishydrazones against bacteria and fungi, the toxicity profile of these compounds was determined against two mammalian cell lines (A549 and BEAS-2B; FIGS. 4A-B). […]. Cytotoxicity assays were performed as previously described. The human lung carcinoma epithelial cells A549 and the normal human bronchial epithelial cells BEAS-2B were grown in F12-K and DMEM medium containing 10% fetal bovine serum (FBS) and 1% antibiotics, respectively. The confluent cells were trypsinized with 0.05%-trypsin-0.53 mM EDTA, centrifuged (1,200 rpm) and resuspended in fresh medium (F12-K or DMEM). The cells were seeded into 96-well microtiter plates at a density of 3,000 cells/well and were grown overnight. […] Triton X-100® (0.5%, v/v) gave complete loss of cell viability and was used as the positive control. The percent cell survival was calculated as: (test value/control value)×100, where control value represents cells+resazurin−drug, and test value represents cells+resazurin+drug.
# [5] = strain E, Gram-negative, range 0.5 to 500 μM, read-out: MIC
# [6] = strain F, Gram-negative, range 0.5 to 500 μM, read-out: MIC
# [7] = strain H, Gram-negative, range 0.5 to 500 μM, read-out: MIC
# [8] = converted from μM, read-out: MIC
# [9] = range 0.5 to 500 μM, read-out: MIC
# [10] = strain I, Gram-negative, range 0.5 to 500 μM, read-out: MIC
# [11] = read-out: MIC, span over all bacterial strains tested
# [12] = strain E, Gram-negative, converted from μM, read-out: MIC
# [13] = strain F, Gram-negative, converted from μM, read-out: MIC
# [14] = strain H, Gram-negative, converted from μM, read-out: MIC
# [15] = strain I, Gram-negative, converted from μM, read-out: MIC
# [16] = C. albicans ATCC 1003, converted from μg/mL
Structure (SMILES),MIC (A. baumannii ATCC 19606; [5]) [µM],MIC (B. subtilis 168; converted from μM) [µg/mL],MIC (B. subtilis 168; range 0.5 to 500 μM) [µM],MIC (E. cloacae ATCC 13047; [6]) [µM],MIC (E. coli MC1061; converted from μM) [µg/mL],MIC (E. coli MC1061; range 0.5 to 500 μM) [µM],MIC (K. pneumoniae ATCC 27736; [7]) [µM],MIC ([1]; converted from μM) [µg/mL],MIC ([1]; range 0.5 to 500 μM) [µM],MIC (M. smegmatis MC2-155; [8]) [µg/mL],MIC (M. smegmatis MC2-155; [9]) [µM],MIC (MRSA; converted from μM) [µg/mL],MIC (MRSA; range 0.5 to 500 μM) [µM],MIC (P. aeruginosa ATCC 27853; [10]) [µM],MIC (S. enterica ATCC 14028; converted from μM) [µg/mL],MIC (S. enterica ATCC 14028; range 0.5 to 500 μM) [µM],MIC (VRE; converted from μM) [µg/mL],MIC (VRE; range 0.5 to 500 μM) [µM],MIC (E. cloacae ATCC 13047; [13]) [µg/mL],MIC (P. aeruginosa ATCC 27853; [15]) [µg/mL],also measured
"CC1(C)S[C@@H]2[C@H](NC(=O)[C@H](N)c3ccccc3)C(=O)N2[C@H]1C(=O)O [AMP, ampicillin, reference compound]",> 250,> 92.8,> 250,> 250,> 92.8,> 250,> 250,92.8,250,> 92.8,> 250,92.8,250,> 250,92.8,250,92.8,250,,,"MIC (A. baumannii ATCC 19606): > 92.8 µg/mL; MIC (E. cloacae ATCC 13047): > 92.8 µg/mL; MIC (K. pneumoniae ATCC 27736): > 92.8 µg/mL; MIC (P. aeruginosa ATCC 27853): > 92.8 µg/mL; MIC [2, 11]: ≥ 250 µM"
"CC1COc2c(N3CCN(C)CC3)c(F)cc3c(=O)c(C(=O)O)cn1c23 (stereo not shown) [OFX, ofloxacin, reference compound]",≤ 0.5,≤ 0.2,≤ 0.5,≤ 0.5,1.4 to 2.8,3.9 to 7.8,15.6 to 31.3,0.4,1,5.6,15.6,0.4,1,3.9,5.6 to 11.3,15.6 to 31.3,2.8,7.8,≤ 0.2,1.4,"MIC (A. baumannii ATCC 19606; [12]): ≤ 0.2 µg/mL; MIC (K. pneumoniae ATCC 27736; [14]): 5.6 to 11.3 µg/mL; MIC [2, 11]: 0.5 to 31.3 µM"
"Cl.N#Cc1ccc(N/N=C/c2ccc(-c3ccc(/C=N/NC(=N)N)cc3)cc2)cc1 [Compound 7Ae, (E)-2-((4′-((E and Z)-(2-(4-Cyanophenyl)hydrazono)methyl)-[1,1′-biphenyl]-4-yl)methylene)hydrazine-1-carboximidamide monohydrochloride]",,13.1,31.3,500,26.1 to 52.2,62.5 to 125,,3.3,7.8,6.5 to 13.1,,6.5,15.6,31.3 to 62.5,6.5,15.6,0.8 to 1.6,2 to 3.9,209,13.1 to 26.1,MIC (A. baumannii ATCC 19606): 15.6 µM to 31.3 µM and 6.5 µg/mL to 13.1 µg/mL; MIC (K. pneumoniae ATCC 27736): 15.6 µM to 31.3 µM and 6.5 µg/mL to 13.1 µg/mL; MIC (M. smegmatis MC2-155; range 0.5 to 500 μM): 15.6 to 31.3 µM; MIC (C. albicans ATCC 1003; [16]): 18.7 µM; MIC (C. albicans ATCC 1003): 7.8 µg/mL; MIC (C. albicans ATCC 10231; converted from μg/mL): 37.3 µM; MIC (C. albicans ATCC 10231): 15.6 µg/mL; MIC (C. albicans ATCC 1237; converted from μg/mL): 37.3 µM; MIC (C. albicans ATCC 1237): 15.6 µg/mL; MIC (C. albicans ATCC 2310; converted from μg/mL): 37.3 µM; MIC (C. albicans ATCC 2310): 15.6 µg/mL; MIC (C. albicans ATCC 2876; converted from μg/mL): 37.3 µM; MIC (C. albicans ATCC 2876): 15.6 µg/mL; MIC (C. albicans ATCC 64124; converted from μg/mL): 74.9 µM; MIC (C. albicans ATCC 64124): 31.3 µg/mL; MIC (C. albicans ATCC 90819; converted from μg/mL): 37.3 µM; MIC (C. albicans ATCC 90819): 15.6 µg/mL; MIC [3]: 7.8 to 15.6 µg/mL; melting point: 308 to 310 °C
"Cl.N=C(N)N/N=C/c1ccc(-c2ccc(/C=N/Nc3ccc(F)cc3)cc2)cc1 [Compound 7Ac, (E)-2-((4′-((E)-(2-(4-Fluorophenyl)hydrazono)methyl)-[1,1′-biphenyl]-4-yl)methylene)hydrazine-1-carboximidamide monohydrochloride]",,,,,,,,,,,,,,,,,,,,,"IC50 at 24 h ([4]; BEAS-2B): 7.8 to 15.6 µg/mL; IC50 at 24 h ([4]; A549, 24 h): 7.8 to 15.6 µg/mL; MIC ([2]; read-out: antibacterial MIC values): 0.4 to 3.3 µg/mL; melting point: > 380 °C"
"Cl.N=C(N)N/N=C/c1ccc(-c2ccc(/C=N/Nc3ccc(Cl)cc3Cl)cc2)cc1 [Compound 7Ag, (E)-2-((4′-((E)-(2-(2,4-dichlorophenyl)hydrazono)methyl)-[1,1′-biphenyl]-4-yl)methylene)hydrazine-1-carboximidamide hydrochloride]",> 500,> 231,> 500,> 500,> 231,> 500,> 500,3.6,7.8,1.8,3.9,3.6,7.8,> 500,> 231,> 500,3.6,7.8,> 231,> 231,MIC (A. baumannii ATCC 19606; [12]): > 231 µg/mL; MIC (K. pneumoniae ATCC 27736; [14]): > 231 µg/mL; MIC (C. albicans ATCC 1003; [16]): 16.8 µM; MIC (C. albicans ATCC 1003): 7.8 µg/mL; MIC (C. albicans ATCC 10231; converted from μg/mL): 16.8 µM; MIC (C. albicans ATCC 10231): 7.8 µg/mL; MIC (C. albicans ATCC 1237; converted from μg/mL): 33.8 µM; MIC (C. albicans ATCC 1237): 15.6 µg/mL; MIC (C. albicans ATCC 2310; converted from μg/mL): 16.8 µM; MIC (C. albicans ATCC 2310): 7.8 µg/mL; MIC (C. albicans ATCC 2876; converted from μg/mL): 33.8 µM; MIC (C. albicans ATCC 2876): 15.6 µg/mL; MIC (C. albicans ATCC 64124; converted from μg/mL): 67.8 µM; MIC (C. albicans ATCC 64124): 31.3 µg/mL; MIC (C. albicans ATCC 90819; converted from μg/mL): 67.8 µM; MIC (C. albicans ATCC 90819): 31.3 µg/mL; MIC [3]: 7.8 to 15.6 µg/mL; melting point: 356 to 358 °C
